Results as given in PubChem BioAssay AID248 (DTP/NCI, 2004).
Toxic doses and inconclusive results are not listed. Cut-off read from the data, not from the text of the source: active = T/C of 150% or more; inactive = T/C below 125%.

Tested on: L1210 leukemia ip in BDF1 mice, survival T/C
Test: NCI In Vivo Anticancer Drug Screen. Data for tumor model L1210 Leukemia (intraperitoneal) in B6D2F1 (BDF1) mice
Details: endpoint: mean survival time, higher = longer survival
Method in brief: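 Survival endpoint. Drug-treated group vs vehicle group, expressed as T divided by C. Tumor passaged by transplantation.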

[1] = dose: 100.0 mg/kg/injection, schedule: Q01DX009 (ip), vehicle: saline with Tween-80
[2] = dose: 100.0 mg/kg/injection, schedule: Q04DX003 (ip), vehicle: saline with Tween-80
[3] = dose: 200.0 mg/kg/injection, schedule: Q01DX009 (ip), vehicle: saline with Tween-80
[4] = dose: 200.0 mg/kg/injection, schedule: Q04DX003 (ip), vehicle: saline with Tween-80
[5] = dose: 400.0 mg/kg/injection, schedule: Q01DX009 (ip), vehicle: saline with Tween-80
[6] = dose: 400.0 mg/kg/injection, schedule: Q04DX003 (ip), vehicle: saline with Tween-80
[7] = dose: 100.0 mg/kg/injection, schedule: Q01DX009 (ip), vehicle: Klucel (hydroxypropylcellulose) (HPC)
[8] = dose: 200.0 mg/kg/injection, schedule: Q01DX009 (ip), vehicle: Klucel (hydroxypropylcellulose) (HPC)
[9] = dose: 400.0 mg/kg/injection, schedule: Q01DX009 (ip), vehicle: Klucel (hydroxypropylcellulose) (HPC)
[10] = dose: 100.0 mg/kg/injection, schedule: Q01DX001 (ip), vehicle: Klucel (hydroxypropylcellulose) (HPC)
[11] = dose: 200.0 mg/kg/injection, schedule: Q01DX001 (ip), vehicle: Klucel (hydroxypropylcellulose) (HPC)
[12] = dose: 400.0 mg/kg/injection, schedule: Q01DX001 (ip), vehicle: Klucel (hydroxypropylcellulose) (HPC)
[13] = dose: 200.0 mg/kg/injection, schedule: Q01DX001 (ip), vehicle: saline
[14] = dose: 50.0 mg/kg/injection, schedule: Q01DX001 (ip), vehicle: saline
[15] = dose: 100.0 mg/kg/injection, schedule: Q01DX001 (ip), vehicle: saline
[16] = dose: 400.0 mg/kg/injection, schedule: Q01DX001 (ip), vehicle: saline
[17] = dose: 100.0 mg/kg/injection, schedule: Q04DX003 (ip), vehicle: Klucel (hydroxypropylcellulose) (HPC)
[18] = dose: 200.0 mg/kg/injection, schedule: Q04DX003 (ip), vehicle: Klucel (hydroxypropylcellulose) (HPC)
[19] = dose: 400.0 mg/kg/injection, schedule: Q04DX003 (ip), vehicle: Klucel (hydroxypropylcellulose) (HPC)
[20] = dose: 100.0 mg/kg/injection, schedule: Q04DX002 (ip), vehicle: saline with Tween-80
[21] = dose: 200.0 mg/kg/injection, schedule: Q04DX002 (ip), vehicle: saline with Tween-80

Measured: T/C

O=C1c2ccccc2C(=O)N1N1C(=O)c2ccccc2C1=O
inactive: [1] 96 % of control | [2] 97 % of control | [3] 91 % of control | [4] 100 % of control | [5] 96 % of control | [6] 97 % of control

O=C(O)C1CC(c2ccccc2)OC1=O (stereo not given)
inactive: dose: 100.0 mg/kg/injection, schedule: Q01DX009 (ip), vehicle: gum acacia 101 % of control | dose: 100.0 mg/kg/injection, schedule: Q04DX003 (ip), vehicle: gum acacia 98 % of control | dose: 200.0 mg/kg/injection, schedule: Q01DX009 (ip), vehicle: gum acacia 89 % of control | dose: 200.0 mg/kg/injection, schedule: Q04DX003 (ip), vehicle: gum acacia 93 % of control | dose: 400.0 mg/kg/injection, schedule: Q01DX009 (ip), vehicle: gum acacia 106 % of control | dose: 400.0 mg/kg/injection, schedule: Q04DX003 (ip), vehicle: gum acacia 91 % of control

O=C(Nc1ccc(Cl)cc1)Nc1ncccn1
inactive: dose: 100.0 mg/kg/injection, schedule: Q04DX002 (ip), vehicle: Klucel (hydroxypropylcellulose) (HPC) 96 % of control | dose: 200.0 mg/kg/injection, schedule: Q04DX002 (ip), vehicle: Klucel (hydroxypropylcellulose) (HPC) 93 % of control | dose: 400.0 mg/kg/injection, schedule: Q04DX002 (ip), vehicle: Klucel (hydroxypropylcellulose) (HPC) 96 % of control

Nc1ncnc2c1ncn2C1OC(COP(=O)(O)O)C(O)C1OCc1ccccc1 (stereo not given)
inactive: dose: 100.0 mg/kg/injection, schedule: Q01DX005 (ip), vehicle: saline 112 % of control | dose: 200.0 mg/kg/injection, schedule: Q01DX005 (ip), vehicle: saline 95 % of control

O=C(Nc1ccccc1C(=O)N/N=C/c1ccc(Cl)cc1Cl)c1ccccc1Cl
inactive: [7] 90 % of control | [8] 97 % of control | [9] 86 % of control

O=C(O)c1cccc2c1C(=O)c1cc(Cl)ccc1-2
inactive: dose: 75.0 mg/kg/injection, schedule: Q01DX001 (ip), vehicle: carboxymethylcellulose (CMC) 96 % of control | dose: 150.0 mg/kg/injection, schedule: Q01DX001 (ip), vehicle: carboxymethylcellulose (CMC) 102 % of control

c1cc(-c2sc(-c3ccncc3)c(-c3ccncc3)c2-c2ccncc2)ccn1
inactive: [10] 107 % of control | [11] 98 % of control | [12] 98 % of control

COc1cc([N+](=O)[O-])c2nc(/C=N/NC(N)=S)ccc2c1[N+](=O)[O-]
inactive: [13] 86 % of control

CCCCOC(=Nc1ccccc1)N(c1ccccc1)c1ccccc1
inactive: dose: 222.0 mg/kg/injection, schedule: Q01DX Z (ip), vehicle: methylcellulose (MC) 88 % of control | dose: 333.0 mg/kg/injection, schedule: Q01DX Z (ip), vehicle: methylcellulose (MC) 94 % of control | dose: 500.0 mg/kg/injection, schedule: Q01DX Z (ip), vehicle: methylcellulose (MC) 98 % of control

Cn1c(=O)c2[nH]c(C3CC3)nc2n(C)c1=O
inactive: [14] 113 % of control | [15] 101 % of control | [13] 98 % of control

CC(C)C1CCC(C)C(NC(N)=O)C1 (stereo not given)
inactive: [15] 95 % of control | [13] 97 % of control | [16] 106 % of control

CC(=O)[O][Pb]([CH2]C(C)C)([CH2]C(C)C)[CH2]C(C)C
inactive: dose: 1.5 mg/kg/injection, schedule: Q01DX009 (ip), vehicle: Klucel (hydroxypropylcellulose) (HPC) 97 % of control | dose: 3.0 mg/kg/injection, schedule: Q01DX001 (ip), vehicle: Klucel (hydroxypropylcellulose) (HPC) 91 % of control | dose: 3.0 mg/kg/injection, schedule: Q01DX009 (ip), vehicle: Klucel (hydroxypropylcellulose) (HPC) 95 % of control | dose: 6.0 mg/kg/injection, schedule: Q01DX001 (ip), vehicle: Klucel (hydroxypropylcellulose) (HPC) 96 % of control | dose: 6.0 mg/kg/injection, schedule: Q01DX009 (ip), vehicle: Klucel (hydroxypropylcellulose) (HPC) 95 % of control | dose: 6.25 mg/kg/injection, schedule: Q01DX009 (ip), vehicle: Klucel (hydroxypropylcellulose) (HPC) 96 % of control | dose: 12.0 mg/kg/injection, schedule: Q01DX001 (ip), vehicle: Klucel (hydroxypropylcellulose) (HPC) 92 % of control | dose: 12.5 mg/kg/injection, schedule: Q04DX002 (ip), vehicle: Klucel (hydroxypropylcellulose) (HPC) 96 % of control

O=[N+]([O-])c1cccc(/C=C/C=C/c2ccc(S(=O)(=O)F)cc2Cl)c1
inactive: [1] 100 % of control | [2] 94 % of control | [3] 93 % of control | [4] 95 % of control | [5] 91 % of control | [6] 90 % of control

CC(=O)OCC(COC(C)=O)OC(C)=O
inactive: dose: 100.0 mg/kg/injection, schedule: Q04DX002 (ip), vehicle: other 98 % of control | dose: 200.0 mg/kg/injection, schedule: Q04DX002 (ip), vehicle: other 98 % of control | dose: 400.0 mg/kg/injection, schedule: Q04DX002 (ip), vehicle: other 103 % of control

CCCCn1cccc1
inactive: [2] 106 % of control | [4] 95 % of control

COC(=O)c1cc(=O)c2c(=O)[nH]c(=O)n(C)c2[nH]1
inactive: [17] 94 % of control | [18] 101 % of control | [19] 95 % of control

COc1ccc(C(=O)/C=C/c2ccc(N(C)C)cc2)cc1
inactive: dose: 37.5 mg/kg/injection, schedule: Q04DX003 (ip), vehicle: saline 95 % of control | dose: 75.0 mg/kg/injection, schedule: Q04DX003 (ip), vehicle: saline 90 % of control | dose: 150.0 mg/kg/injection, schedule: Q04DX003 (ip), vehicle: saline 89 % of control

NC(=O)NCC(=O)O
inactive: dose: 50.0 mg/kg/injection, schedule: Q01DX001 (ip), vehicle: Klucel (hydroxypropylcellulose) (HPC) 96 % of control | dose: 50.0 mg/kg/injection, schedule: Q01DX009 (ip), vehicle: Klucel (hydroxypropylcellulose) (HPC) 91 % of control | [10] 100 % of control | [7] 100 % of control | [11] 100 % of control | [8] 96 % of control | [12] 94 % of control

CCOC(=O)/C(C#N)=C(\CCc1ccccc1)CC(C)C
inactive: [20] 101 % of control | [21] 101 % of control | dose: 400.0 mg/kg/injection, schedule: Q04DX002 (ip), vehicle: saline with Tween-80 104 % of control

CC(C)C12NC(=O)NC(=O)N1CCS2 (stereo not given)
inactive: [14] 93 % of control | [15] 96 % of control | [13] 100 % of control | [16] 100 % of control

Cn1c(=O)c2c(nc(OC3CCCC3)n2C)n(C)c1=O
inactive: dose: 50.0 mg/kg/injection, schedule: Q01DX001 (ip), vehicle: other 98 % of control | dose: 100.0 mg/kg/injection, schedule: Q01DX001 (ip), vehicle: other 98 % of control | dose: 200.0 mg/kg/injection, schedule: Q01DX001 (ip), vehicle: other 87 % of control

O=C(O)COC(C[N+](=O)[O-])C(Cl)(Cl)Cl (stereo not given)
inactive: [1] 95 % of control | [3] 92 % of control | [5] 88 % of control

Nc1cc(O)c(CCCNC(=O)CBr)c(-c2ccccc2)c1
inactive: [10] 92 % of control | [11] 105 % of control | [12] 102 % of control

CCC(CC)C1CC[N-]CC1.CCC(CC)C1CC[N-]CC1.N#C[S-].N#C[S-].[Cu]
inactive: dose: 75.0 mg/kg/injection, schedule: Q01DX001 (ip), vehicle: saline 123 % of control

c1cc2cc3c(cc2c2c1CC1c4cc5c(cc4CCN1C2)OCO5)OCO3 (stereo not given)
inactive: [7] 103 % of control | [17] 101 % of control | [8] 97 % of control | [18] 97 % of control | [9] 97 % of control | [19] 94 % of control

Cn1c2c(c3ccccc31)C(=C(c1ccccc1)c1ccccc1)c1ccccc1-2
inactive: [20] 87 % of control | [21] 87 % of control

CCCCCCCCCCCCCCCC(C1CCCC1)C1CCCC1
inactive: dose: 75.0 mg/kg/injection, schedule: Q01DX001 (ip), vehicle: saline with Tween-80 99 % of control | dose: 150.0 mg/kg/injection, schedule: Q01DX001 (ip), vehicle: saline with Tween-80 97 % of control | dose: 300.0 mg/kg/injection, schedule: Q01DX001 (ip), vehicle: saline with Tween-80 101 % of control
